Reference: patent publication US20090221607A1, “Piperazine Derivatives” (M's Science Corporation, priority 2006, published 2009)
Where a name gives a salt, the structure may show the parent alone.

Target: T1, σ1 receptors (Homo sapiens, UniProt Q99720)
T1 construct: endogenous in cells; host or cells: HEK-293 cell membranes
Experiment: σ1 receptor binding assay ((+)-[3H]pentazocine displacement, HEK-293 cell membranes)
Details: 10 nM (+)-[3H]-pentazocine, 120 min at 37° C.
Procedure: Sigma-1 (σ1) and sigma-2 (σ2) receptor binding assays are carried out in membranes from HEK-293 (Human Embryonic Kidney) cells.
Confluent HEK-293 cells are harvested in PBS/5 mM EDTA. They are centrifuged at 2000 rpm for 5 min and then washed two times in PBS. Cells are homogenized in 20 mM Tris-HCL (pH=7.5) containing 5 mM EDTA, 0.5 mM PMSF and 0.5 μg/mL leupeptin using a Dounce homogenizer and sonicated for 5 minutes.
Nuclear debris and intact cells are removed by centrifugation at 3000 rpm for 10 minutes at 4° C. The supernatant is centrifuged at 12000 rpm for 30 minutes and the resulting pellet is resuspended in 25 mM Tris-HCL (pH=7.5), 25 mM Mg2Cl, 10% sucrose containing 0.5 mM PMSF, 2 mM AEBSF, 1 mM EDTA, 130 μM bestatin, 14 μM E-64, 1 μM leupeptin and […] aprotinin.
Proteins are determined using the Bio Rad Protein Assay Dye Reagent and the membranes are aliquoted and frozen at −80° C. […]
Total binding is determined by incubating 50 μg of HEK-293 cell membranes with 10 nM (+)-[^3H]-pentazocine (Perkin-Elmer, 35 Ci/mmol) and assay buffer (50 mM Tris-HCl, pH=8.3) in a total volume of 200 μl. Non specific binding is determined in the presence of 10 μM unlabeled pentazocine. […] The filters are washed three times and the membrane-bound radioactivity is determined in a Microbeta scintillation counter. […]
Specific binding is determined by subtraction of non specific binding from total binding. […]

T1 sequence (Q99720 whole entry): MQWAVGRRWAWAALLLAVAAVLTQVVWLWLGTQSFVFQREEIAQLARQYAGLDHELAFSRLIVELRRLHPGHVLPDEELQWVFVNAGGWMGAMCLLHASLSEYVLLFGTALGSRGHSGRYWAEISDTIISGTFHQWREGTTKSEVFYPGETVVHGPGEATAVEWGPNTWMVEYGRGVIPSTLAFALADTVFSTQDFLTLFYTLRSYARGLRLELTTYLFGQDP

SMILES | IC50
Fc1ccc(OCCN2CCN(CCOc3ccc(F)cc3)CC2)cc1 [1,4-bis-[2-(4-fluorophenoxy)ethyl]piperazine] | < 700 nM
Fc1ccccc1OCCN1CCN(CCOc2ccccc2F)CC1 [Example 1, 1,4-Bis-[2-(2-fluorophenoxy)ethyl]piperazine dihydrochloride] | < 700 nM
